pEC50, pIC50: −log10 of the molar value. Converted amounts (≈) assume the structure as drawn. The source made the active and inactive calls. The rule behind the calls is not given here.
Columns and labels:
[1] = Tmax in C57 mouse at 30 mg/kg, po; type: ADME, organism-based; parameters: dose 30 mg/kg, route oral; conditions: in vivo
[2] = Clearance in mouse liver microsomes; type: ADME, Microsome
[3] = Drug uptake in C57 mouse liver at 30 mg/kg, po measured at 8 hrs; type: ADME, organism-based; parameters: dose 30 mg/kg, route oral; conditions: read-out: Drug uptake
[4] = AUC in C57 mouse at 30 mg/kg, po; type: ADME, organism-based; parameters: dose 30 mg/kg, route oral; conditions: plasma
[5] = Drug uptake in C57 mouse kidney at 30 mg/kg, po measured at 8 hrs; type: ADME, organism-based; parameters: dose 30 mg/kg, route oral; conditions: read-out: Drug uptake
[6] = biological target: T1, Mitogen-activated protein kinase 8 (Homo sapiens, UniProt P45983); assay: Inhibition of JNK1 after 30 mins by TR-FRET assay
T1 sequence (P45983 whole entry): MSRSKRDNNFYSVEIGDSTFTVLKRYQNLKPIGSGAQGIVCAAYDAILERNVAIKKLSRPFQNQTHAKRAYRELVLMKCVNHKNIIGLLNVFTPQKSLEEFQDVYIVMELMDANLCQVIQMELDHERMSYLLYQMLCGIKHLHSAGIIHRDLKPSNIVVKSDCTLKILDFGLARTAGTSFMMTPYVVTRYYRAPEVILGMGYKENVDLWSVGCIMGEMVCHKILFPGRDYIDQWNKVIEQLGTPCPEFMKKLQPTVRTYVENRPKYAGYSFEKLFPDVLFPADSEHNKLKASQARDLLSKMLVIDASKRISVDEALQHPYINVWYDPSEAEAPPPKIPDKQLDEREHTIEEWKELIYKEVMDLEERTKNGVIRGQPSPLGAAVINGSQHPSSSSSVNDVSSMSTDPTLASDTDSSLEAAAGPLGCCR

[7] = Cmax in C57 mouse at 30 mg/kg, po; type: ADME, organism-based; parameters: dose 30 mg/kg, route oral; conditions: in vivo
[8] = biological target: T1, Mitogen-activated protein kinase 8; assay: Inhibition of JNK1-mediated c-jun phosphorylation in TNF-alpha stimulated human HK-2 cells after 30 mins by TR-FRET assay; type: cell-based
[9] = Plasma concentration in C57 mouse at 30 mg/kg, po measured at 8 hrs; type: ADME, organism-based; parameters: dose 30 mg/kg, route oral
[10] = Clearance in mouse hepatocytes; type: ADME, cell-based, Liver, Hepatocyte
[11] = Solubility of the compound in acetonitrile/water at pH 6.5 by lyophilization solubility assay; type: physicochemical
[12] = Mean residence time in C57 mouse at 30 mg/kg, po; type: ADME, organism-based; parameters: dose 30 mg/kg, route oral; conditions: in vivo
[13] = Volume of distribution at steady state in C57 mouse at 5 mg/kg, iv; type: ADME, organism-based; parameters: dose 5 mg/kg, route intravenous; conditions: in vivo, read-out: Vdss
[14] = AUC in rat at 75 mg/kg, po administered as MBP formulation; type: ADME, organism-based; parameters: dose 75 mg/kg, route oral; conditions: plasma
[15] = Solubility of the compound in MeOH solvate by lyophilization solubility assay; type: physicochemical
[16] = Clearance in C57 mouse at 5 mg/kg, iv administered as DMSO formulation; type: ADME, organism-based; parameters: dose 5 mg/kg, route intravenous; conditions: in vivo
[17] = AUC in C57 mouse at 75 mg/kg, po administered as MBP formulation; type: ADME, organism-based; parameters: dose 75 mg/kg, route oral; conditions: plasma
[18] = Half life in C57 mouse at 5 mg/kg, iv administered as DMSO formulation; type: ADME, organism-based; parameters: dose 5 mg/kg, route intravenous; conditions: in vivo
[19] = Extrapolated AUC in rat at 5 mg/kg, iv administered as DMSO formulation; type: ADME, organism-based; parameters: dose 5 mg/kg, route intravenous; conditions: in vivo
[20] = Cmax in rat at 75 mg/kg, po administered as MBP formulation; type: ADME, organism-based; parameters: dose 75 mg/kg, route oral; conditions: in vivo
[21] = Half life in rat at 30 mg/kg, po administered as DMSO formulation; type: ADME, organism-based; parameters: dose 30 mg/kg, route oral; conditions: in vivo
[22] = Volume of distribution in C57 mouse at 5 mg/kg, iv administered as DMSO formulation; type: ADME, organism-based; parameters: dose 5 mg/kg, route intravenous; conditions: in vivo
[23] = AUC in C57 mouse at 30 mg/kg, po administered as DMSO formulation; type: ADME, organism-based; parameters: dose 30 mg/kg, route oral; conditions: plasma
[24] = Tmax in rat at 75 mg/kg, po administered as MBP formulation; type: ADME, organism-based; parameters: dose 75 mg/kg, route oral; conditions: in vivo
[25] = Tmax in C57 mouse at 75 mg/kg, po administered as MBP formulation; type: ADME, organism-based; parameters: dose 75 mg/kg, route oral; conditions: in vivo
[26] = Clearance in rat at 5 mg/kg, iv administered as DMSO formulation; type: ADME, organism-based; parameters: dose 5 mg/kg, route intravenous; conditions: in vivo
[27] = Half life in rat at 75 mg/kg, po administered as MBP formulation; type: ADME, organism-based; parameters: dose 75 mg/kg, route oral; conditions: in vivo
Rattus norvegicus [28] = assay: In vivo inhibition of JNK-mediated c-jun phosphorylation in Sprague-Dawley rat assessed as phosphorylated c-jun level in kidney at 75 mg/kg, po administered as single dose in MBP formulation 7 hrs prior TNF-alpha challenge measured 1 hr post challenge by Western blot method relative to untreated control; type: functional
[29] = Tmax in rat at 30 mg/kg, po administered as DMSO formulation; type: ADME, organism-based; parameters: dose 30 mg/kg, route oral; conditions: in vivo
[30] = Cmax in C57 mouse at 75 mg/kg, po administered as MBP formulation; type: ADME, organism-based; parameters: dose 75 mg/kg, route oral; conditions: in vivo
[31] = Cmax in C57 mouse at 30 mg/kg, po administered as DMSO formulation; type: ADME, organism-based; parameters: dose 30 mg/kg, route oral; conditions: in vivo
[32] = Half life in rat at 5 mg/kg, iv administered as DMSO formulation; type: ADME, organism-based; parameters: dose 5 mg/kg, route intravenous; conditions: in vivo
[33] = Volume of distribution in rat at 5 mg/kg, iv administered as DMSO formulation; type: ADME, organism-based; parameters: dose 5 mg/kg, route intravenous; conditions: in vivo
[34] = AUC (0 to 24 hrs) in C57 mouse at 5 mg/kg, iv; type: ADME, organism-based; parameters: time < 24 hr, dose 5 mg/kg, route intravenous; conditions: plasma
Rattus norvegicus [35] = assay: In vivo inhibition of JNK-mediated c-jun phosphorylation in Sprague-Dawley rat kidney at 75 mg/kg, po tid administered in MBP formulation 23 hrs prior TNF-alpha challenge measured 1 hr post challenge by Western blot method; type: functional, organism-based; parameters: dose 75 mg/kg
[36] = Mean residence time in C57 mouse at 5 mg/kg, iv administered as DMSO formulation; type: ADME, organism-based; parameters: dose 5 mg/kg, route intravenous; conditions: in vivo
Rattus norvegicus [37] = assay: In vivo inhibition of JNK-mediated c-jun phosphorylation in Sprague-Dawley rat kidney at 75 mg/kg, po bid administered in MBP formulation 23 hrs prior TNF-alpha challenge measured 1 hr post challenge by Western blot method; type: functional, organism-based; parameters: dose 75 mg/kg
[38] = Half life in C57 mouse at 75 mg/kg, po administered as MBP formulation; type: ADME, organism-based; parameters: dose 75 mg/kg, route oral; conditions: in vivo
[39] = Cmax in rat at 30 mg/kg, po administered as DMSO formulation; type: ADME, organism-based; parameters: dose 30 mg/kg, route oral; conditions: in vivo
[40] = Clearance in C57 mouse at 5 mg/kg, iv; type: ADME, organism-based; parameters: dose 5 mg/kg, route intravenous; conditions: in vivo
[41] = AUC in rat at 30 mg/kg, po administered as DMSO formulation; type: ADME, organism-based; parameters: dose 30 mg/kg, route oral; conditions: plasma
[42] = Tmax in C57 mouse at 30 mg/kg, po administered as DMSO formulation; type: ADME, organism-based; parameters: dose 30 mg/kg, route oral; conditions: in vivo
[43] = Mean residence time in rat at 5 mg/kg, iv administered as DMSO formulation; type: ADME, organism-based; parameters: dose 5 mg/kg, route intravenous; conditions: in vivo
[44] = Extrapolated AUC in C57 mouse at 5 mg/kg, iv administered as DMSO formulation; type: ADME, organism-based; parameters: dose 5 mg/kg, route intravenous; conditions: in vivo

COC(=O)c1c(Cc2ccc(C(=O)NC(C)(C)CO)cc2)c(=O)c2cccnc2n1-c1ccccc1
Tmax [1]: 0.25 h
CLhep predicted [2]: 58 mL/min/kg
concentration at 8 h [3]: 2490 nM
AUC [4]: 7010 ng·h/mL
concentration at 8 h [5]: 620 nM
pIC50 [6]: 7.35
Cmax [7]: 3840 ng/mL
pEC50 [8]: 5.05
concentration at 8 h [9]: 380 nM
CLhep predicted [10]: 52.9 mL/min/kg
solubility [11]: 103 µg/mL (≈ 212 µM)
MRT [12]: 2.03 h

COC(=O)c1c(Cc2ccc(C(=O)N[C@H](CO)C(C)(C)C)cc2)c(=O)c2cccnc2n1-c1ccccc1
Tmax [1]: 0.25 h
concentration at 8 h [3]: 230 nM
concentration at 8 h [5]: 30 nM
concentration at 8 h [9]: 20 nM
MRT [12]: 1.42 h

COC(=O)c1c(Cc2ccc(C(=O)NCCO)cc2)c(=O)c2ccc(Cl)cc2n1-c1ccccc1
CLhep predicted [2]: 67 mL/min/kg
pIC50 [6]: 7.36
pEC50 [8]: 5.00
CLhep predicted [10]: 31.7 mL/min/kg
solubility [11]: 4.6 µg/mL (≈ 9.37 µM)

COC(=O)c1c(Cc2ccc(C(=O)N[C@H]3CC[C@H](O)CC3)cc2)c(=O)c2cccnc2n1-c1ccccc1
Tmax [1]: 0.25 h
concentration at 8 h [3]: 5570 nM
concentration at 8 h [5]: 1890 nM
concentration at 8 h [9]: 810 nM
Vd [13]: 0.73 L/kg
MRT [12]: 3.45 h

COC(=O)c1c(Cc2ccc(C(=O)NC3(CO)CC3)cc2)c(=O)c2cccnc2n1-c1ccccc1
Tmax [1]: 0.25 h
CLhep predicted [2]: 45 mL/min/kg
concentration at 8 h [3]: 4490 nM
AUC [4]: 7480 ng·h/mL
concentration at 8 h [5]: 860 nM
pIC50 [6]: 7.35
Cmax [7]: 4370 ng/mL
pEC50 [8]: 4.68
concentration at 8 h [9]: 380 nM
CLhep predicted [10]: 33.2 mL/min/kg
solubility [11]: 138 µg/mL (≈ 285 µM)
MRT [12]: 1.73 h

COC(=O)c1c(Cc2ccc(C(=O)N[C@H]3[C@@H]4C[C@@H]5C[C@H]3C[C@@](O)(C5)C4)cc2)c(=O)c2cccnc2n1-c1ccccc1
CLhep predicted [2]: 81 mL/min/kg
pIC50 [6]: 7.33
pEC50 [8]: 5.07
solubility [11]: 25 µg/mL (≈ 44.4 µM)

COC(=O)c1c(Cc2ccc(C(=O)N[C@@H]3[C@@H]4C[C@@H]5C[C@H]3C[C@@](N)(C5)C4)cc2)c(=O)c2cccnc2n1-c1ccccc1
solubility [11]: 21.9 µg/mL (≈ 38.9 µM)

COC(=O)c1c(Cc2ccc(C(=O)N[C@@H]3[C@@H]4C[C@@H]5C[C@H]3C[C@@](O)(C5)C4)cc2)c(=O)c2cccnc2n1-c1ccccc1
AUC [14]: 252000 ng·h/mL
solubility [15]: 14 µg/mL (≈ 24.8 µM)
Tmax [1]: 0.25 h
CLhep predicted [2]: 59 mL/min/kg
clearance [16]: 8.4 mL/min/kg
AUC [17]: 49200 ng·h/mL
half-life [18]: 0.6 h
concentration at 8 h [3]: 2960 nM
AUC [19]: 16300 ng·h/mL
Cmax [20]: 30100 ng/mL
half-life [21]: 2.4 h
Vd [22]: 0.3 L/kg
AUC [23]: 22400 ng·h/mL
Tmax [24]: 4 h
AUC [4]: 22400 ng·h/mL
concentration at 8 h [5]: 860 nM
Tmax [25]: 1 h
clearance [26]: 6.4 mL/min/kg
half-life [27]: 2 h
inhibition in vivo at 75 mg/kg (Rattus norvegicus [28]): 52%
pIC50 [6]: 7.92
Tmax [29]: 4 h
Cmax [30]: 18100 ng/mL
Cmax [31]: 13600 ng/mL
Cmax [7]: 13600 ng/mL
half-life [32]: 2.4 h
pEC50 [8]: 5.39
Vd [33]: 0.61 L/kg
concentration at 8 h [9]: 560 nM
Vd [13]: 0.3 L/kg
AUC(0-t) at 24 h [34]: 9890 ng·h/mL
inhibition (Rattus norvegicus [35]): Active
MRT [36]: 0.6 h
inhibition (Rattus norvegicus [37]): Active
half-life [38]: 1.62 h
Cmax [39]: 8030 ng/mL
CLhep predicted [10]: 10.9 mL/min/kg
solubility [11]: 14 µg/mL (≈ 24.8 µM)
clearance [40]: 8.4 mL/min/kg
AUC [41]: 48300 ng·h/mL
MRT [12]: 2.38 h
Tmax [42]: 0.25 h
MRT [43]: 1.8 h
AUC [44]: 9890 ng·h/mL

COC(=O)c1c(Cc2ccc(C(=O)NCC(C)(C)O)cc2)c(=O)c2cccnc2n1-c1ccccc1
Tmax [1]: 0.25 h
concentration at 8 h [3]: 4000 nM
concentration at 8 h [5]: 1420 nM
concentration at 8 h [9]: 740 nM
MRT [12]: 3.14 h
